Experimental data taken from PMC9206137, “Synergistic anti-SARS-CoV-2 activity of repurposed anti-parasitic drug combinations” (BMC Pharmacology & Toxicology, 2022).
“And” between values parts separate entries of the source, which are not always exact repeats. Identical values can stand only once.

Columns and labels:
[1] = Cell viability assay (MTT) in Calu-3 cells; conditions: human, Calu-3 cells
Procedure: (§1) Subsequently, the cell viability was assessed using MTT dyes (Invitrogen) in duplicate (Supplementary file 1). The procedure was described elsewhere. The viability of drug-treated cells was expressed as percent cell viability relative to 0.5% DMSO-treated cells.

[2] = tested on: Calu-3 cells; test: Cell viability assay (MTT) in Calu-3 cells; conditions: replicates; for %cell viability: Calu-3; for cell viability: Calu-3 cells
Procedure: as §1

[3] = tested on: SARS-CoV-2; test: Antiviral activity against SARS-CoV-2 in Vero E6 cells, plaque assay; type: cell-based
[4] = tested on: SARS-CoV-2; test: microbe, parasite or virus in culture; type: cell-based; conditions: for % inhibition: Calu-3 cells
[5] = tested on: Vero E6 cells; test: Cell viability assay (MTT) in Vero E6 cells; conditions: replicates; for %cell viability: Vero E6; for cell viability: Vero E6 cells
Procedure: as §1

[6] = Cell viability assay (MTT) in Vero E6 cells; conditions: African green monkey, Vero E6 cells
Procedure: as §1

[7] = tested on: SARS-CoV-2; test: Antiviral activity against SARS-CoV-2 in Vero E6 cells, one-step qRT-PCR (single drugs, two-drug combinations, synergy analysis); conditions: for %inhibition (qRT-PCR) / % inhibition: replicates; for % inhibition: Vero E6 cells

O=C(Nc1ccc([N+](=O)[O-])cc1Cl)c1cc(Cl)ccc1O [Niclosamide, niclosamide]
CC50 at 48 h [1]: 5.62 µM | viability at 48 h, 0.019531 uM ([1]; %cell viability, Calu-3, niclosamide 0.019531 uM, replicates): 92.2% | viability at 48 h, 0.039063 uM ([1]; %cell viability, Calu-3, niclosamide 0.039063 uM, replicates): 102% | viability at 48 h, 0.078125 uM ([1]; %cell viability, Calu-3, niclosamide 0.078125 uM, replicates): 109% | viability at 48 h, 0.15625 uM ([1]; %cell viability, Calu-3, niclosamide 0.15625 uM, replicates): 100% | viability at 48 h, 0.3125 uM ([1]; %cell viability, Calu-3, niclosamide 0.3125 uM, replicates): 100% | viability at 48 h, 0.625 uM ([1]; %cell viability, Calu-3, niclosamide 0.625 uM, replicates): 107% | viability at 48 h, 1.25 uM ([1]; %cell viability, Calu-3, niclosamide 1.25 uM, replicates): 96.5% | viability at 48 h, 2.5 uM ([1]; %cell viability, Calu-3, niclosamide 2.5 uM, replicates): 85% | viability at 48 h, 5 uM ([1]; %cell viability, Calu-3, niclosamide 5 uM, replicates): 59.4% | %cell viability ([2]; niclosamide 0.019531 uM): 102.92% | %cell viability ([2]; niclosamide 0.039063 uM): 104.17% | %cell viability ([2]; niclosamide 0.078125 uM): 109.86% | %cell viability ([2]; niclosamide 0.15625 uM): 107.64% | %cell viability ([2]; niclosamide 0.3125 uM): 99.17% | %cell viability ([2]; niclosamide 0.625 uM): 104.86% | %cell viability ([2]; niclosamide 1.25 uM): 97.36% | %cell viability ([2]; niclosamide 2.5 uM): 82.64% | %cell viability ([2]; niclosamide 5 uM): 54.44% | cell viability ([2]; Niclosamide 0.05 uM alone): 96.54 and 92.66 | cell viability ([2]; Niclosamide 0.10 uM alone): 89.85 and 85.75 | cell viability ([2]; Niclosamide 0.20 uM alone): 98.27 and 86.39 | cell viability ([2]; Niclosamide 0.40 uM alone): 103.02 and 98.49 | inhibition at 0.00390625 µM ([3]; Severe acute respiratory syndrome coronavirus 2, Vero C1008, Vero E6, niclosamide 0.00390625 uM, replicates): 11.5% | inhibition at 0.015625 µM ([3]; Severe acute respiratory syndrome coronavirus 2, Vero C1008, Vero E6, niclosamide 0.015625 uM, replicates): 23.2% | inhibition at 0.03125 µM ([3]; Severe acute respiratory syndrome coronavirus 2, Vero C1008, Vero E6, niclosamide 0.03125 uM, replicates): 23.7% | inhibition at 0.0625 µM ([3]; Severe acute respiratory syndrome coronavirus 2, Vero C1008, Vero E6, niclosamide 0.0625 uM, replicates): 40.1% | inhibition at 0.125 µM ([3]; Severe acute respiratory syndrome coronavirus 2, Vero C1008, Vero E6, niclosamide 0.125 uM, replicates): 84.6% | IC50 ([3]; Severe acute respiratory syndrome coronavirus 2, Vero C1008, Vero E6, MOI 0.01, 48 hours, single drug): 0.049 µM | %inhibition (plaque assay) ([3]; Vero E6, niclosamide 0.00390625 uM, replicates): 9.45% and 9.72% | %inhibition (plaque assay) ([3]; Vero E6, niclosamide 0.0078125 uM, replicates): 5.39% and 21.29% and 14.01% | %inhibition (plaque assay) ([3]; Vero E6, niclosamide 0.015625 uM, replicates): 25.26% and 23.12% | %inhibition (plaque assay) ([3]; Vero E6, niclosamide 0.03125 uM, replicates): 28.44% and 31.03% | %inhibition (plaque assay) ([3]; Vero E6, niclosamide 0.0625 uM, replicates): 40.15% and 40.02% | %inhibition (plaque assay) ([3]; Vero E6, niclosamide 0.125 uM, replicates): 97.12% and 94.56% | SI ([4]; Calu-3): 28.1 | %inhibition (plaque assay) ([4]; Calu-3, niclosamide 0.039063 uM, replicates): 23.81% (2×) and 35.24% | %inhibition (plaque assay) ([4]; Calu-3, niclosamide 0.078125 uM, replicates): 35.24% and 39.05% | %inhibition (plaque assay) ([4]; Calu-3, niclosamide 0.15625 uM, replicates): 35.24% and 42.86% and 20.00% | %inhibition (plaque assay) ([4]; Calu-3, niclosamide 0.3125 uM, replicates): 69.52% and 61.90% | %inhibition (plaque assay) ([4]; Calu-3, niclosamide 0.625 uM, replicates): 61.90% | %inhibition (plaque assay) ([4]; Calu-3, niclosamide 1.25 uM, replicates): 69.52% and 80.95% | % inhibition ([4]; Niclosamide 0.05 uM alone, replicates): 33.33% and 13.33% (2×) | % inhibition ([4]; Niclosamide 0.10 uM alone, replicates): 40.00% | % inhibition ([4]; Niclosamide 0.40 uM alone, replicates): 70.00% | inhibition at 0.039063 µM ([4]; Severe acute respiratory syndrome coronavirus 2, Calu-3, Calu-3, niclosamide 0.039063 uM, replicates, read-out: %inhibition (plaque assay)): 31.4% | inhibition at 0.078125 µM ([4]; Severe acute respiratory syndrome coronavirus 2, Calu-3, Calu-3, niclosamide 0.078125 uM, replicates, read-out: %inhibition (plaque assay)): 31.4% | inhibition at 0.1 µM ([4]; Severe acute respiratory syndrome coronavirus 2, Calu-3, Calu-3, niclosamide 0.1 uM alone): 46.7 ± 6.67% | inhibition at 0.2 µM ([4]; Severe acute respiratory syndrome coronavirus 2, Calu-3, Calu-3, niclosamide 0.2 uM alone): 53.3 ± 6.67% | inhibition at 0.3125 µM ([4]; Severe acute respiratory syndrome coronavirus 2, Calu-3, Calu-3, niclosamide 0.3125 uM, replicates, read-out: %inhibition (plaque assay)): 73.3% | inhibition at 0.4 µM ([4]; Severe acute respiratory syndrome coronavirus 2, Calu-3, Calu-3, niclosamide 0.4 uM alone): 61.1 ± 8.39% | inhibition at 0.625 µM ([4]; Severe acute respiratory syndrome coronavirus 2, Calu-3, Calu-3, niclosamide 0.625 uM, replicates, read-out: %inhibition (plaque assay)): 65.7% | inhibition at 1.25 µM ([4]; Severe acute respiratory syndrome coronavirus 2, Calu-3, Calu-3, niclosamide 1.25 uM, replicates, read-out: %inhibition (plaque assay)): 73.3% | inhibition at 0.1 µM ([4]; Severe acute respiratory syndrome coronavirus 2, Calu-3, Calu-3 cells, Niclosamide 0.10 uM alone, replicates): 53.3% | inhibition at 0.2 µM ([4]; Severe acute respiratory syndrome coronavirus 2, Calu-3, Calu-3 cells, Niclosamide 0.20 uM alone, replicates): 53.3% | inhibition at 0.4 µM ([4]; Severe acute respiratory syndrome coronavirus 2, Calu-3, Calu-3 cells, Niclosamide 0.40 uM alone, replicates): 60% | IC50 ([4]; Severe acute respiratory syndrome coronavirus 2, Calu-3, 500 TCID50, plaque assay, single drug): 0.2 µM | %cell viability ([5]; niclosamide 0.00390625 uM): 92.84% | %cell viability ([5]; niclosamide 0.0078125 uM): 91.90% | %cell viability ([5]; niclosamide 0.015625 uM): 92.98% | %cell viability ([5]; niclosamide 0.03125 uM): 90.36% | %cell viability ([5]; niclosamide 0.0625 uM): 90.95% | %cell viability ([5]; niclosamide 0.125 uM): 88.11% | %cell viability ([5]; niclosamide 0.25 uM): 54.41% | %cell viability ([5]; niclosamide 0.5 uM): 25.91% | cell viability ([5]; Niclosamide 0.01125 uM alone): 91.66 and 92.98 | cell viability ([5]; Niclosamide 0.0225 uM alone): 92.73 and 90.36 | cell viability ([5]; Niclosamide 0.045 uM alone): 94.97 and 90.95 | cell viability ([5]; Niclosamide 0.09 uM alone): 89.48 and 90.50 | CC50 at 48 h [6]: 0.29 µM | viability at 48 h, 0.00390625 uM ([6]; %cell viability, Vero E6, niclosamide 0.00390625 uM, replicates): 98.6% | viability at 48 h, 0.0078125 uM ([6]; %cell viability, Vero E6, niclosamide 0.0078125 uM, replicates): 97.7% | viability at 48 h, 0.015625 uM ([6]; %cell viability, Vero E6, niclosamide 0.015625 uM, replicates): 91.7% | viability at 48 h, 0.03125 uM ([6]; %cell viability, Vero E6, niclosamide 0.03125 uM, replicates): 92.7% | viability at 48 h, 0.0625 uM ([6]; %cell viability, Vero E6, niclosamide 0.0625 uM, replicates): 95% | viability at 48 h, 0.125 uM ([6]; %cell viability, Vero E6, niclosamide 0.125 uM, replicates): 91.3% | viability at 48 h, 0.25 uM ([6]; %cell viability, Vero E6, niclosamide 0.25 uM, replicates): 59.2% | viability at 48 h, 0.5 uM ([6]; %cell viability, Vero E6, niclosamide 0.5 uM, replicates): 20.1% | %inhibition (qRT-PCR) ([7]; Vero E6, niclosamide 0.00390625 uM): 21.23% and 16.04% and 7.08% | %inhibition (qRT-PCR) ([7]; Vero E6, niclosamide 0.0078125 uM): 27.36% and 22.17% and 24.53% | %inhibition (qRT-PCR) ([7]; Vero E6, niclosamide 0.015625 uM): 29.25% and 17.92% and 28.30% | %inhibition (qRT-PCR) ([7]; Vero E6, niclosamide 0.03125 uM): 29.72% and 33.96% and 20.28% | %inhibition (qRT-PCR) ([7]; Vero E6, niclosamide 0.0625 uM): 52.36% and 36.32% and 72.26% | %inhibition (qRT-PCR) ([7]; Vero E6, niclosamide 0.125 uM): 95.05% and 87.83% and 93.92% | % inhibition ([7]; Niclosamide 0.01125 uM alone): 6.05% and 30.26% and 19.89% and 3.41% | % inhibition ([7]; Niclosamide 0.0225 uM alone): 31.70% and 37.15% and 50.00% | % inhibition ([7]; Niclosamide 0.045 uM alone): 62.37% and 59.41% and 53.57% | % inhibition ([7]; Niclosamide 0.09 uM alone): 75.85% and 79.12% and 97.76% and 97.32% | IC50 ([7]; read-out: IC50 (μM) qRT-PCR, Vero E6, MOI 0.01, 48 hours, single drug): 0.043 µM
